# Measurements: patent US10869931B2, “Polyethylene glycol-modified angiogenesis inhibitor HM-1 and application thereof” (NANJING ANJI BIOLOGICAL TECHNOLOGY CO.,LTD, priority 2016, dated 2020)
# Marks after values point to notes of the source that are not given here. Where no end group is shown, it is not given here.
# Tests used:
# [1] = test system: IL-1β production by mouse peritoneal macrophages; test: IL-1β production by mouse peritoneal macrophages (ELISA); type: cell-based; settings: 48 h
# Method: (1) IL-1β production: mice were intraperitoneally injected with 1 mL of broth (containing 6%) starch, and three days later, the mouse peritoneal macrophages were aseptically taken, washed twice with 1640 medium, and the cell concentration was adjusted to 2×10^6 cells/mL, inject into a 24-well culture plate, 1 mL per well, incubate for 3 hours in a cell culture incubator, shake once every 30 minutes, and allow the cells to fully adhere. Then, it was washed twice with the culture solution to remove unattached cells. The blank group was added with PBS, the positive group was added with the positive drug dexamethasone (Dex), the model group was not administered, to the experimental group was added low, medium and high three concentrations of mPEG-HM-1, and the culture was continued for 48 hours after the administration, 1000 r/min. Centrifuge for 15 min. The supernatant was taken as a sample for testing activity of IL-1β.
# (2) Determination of IL-1β content: using R&D mouse IL-1β enzyme-linked immunosorbent assay kit, according to the kit instructions as follows: respectively, the tested samples and different concentrations of standard products, sealed with sealing tape the reaction well and incubated at 37° C. for 90 min; the plate was washed four times; the biotinylated antibody working solution (100 μL/well) was added, and the reaction well was sealed with sealing paper, incubated at 37° c. for 60 min; the plate was washed four times; Add the enzyme conjugate working solution (100 μL/well), seal the reaction well with sealing paper, incubate at 37° C. for 30 min; wash the plate four times; add color reagent (100 μL/well), incubate at 37° C. 10-20 min, add stop solution (100 μL/well), mix and measure OD450 value.
# [2] = test system: carrageenan-induced toe swelling in SD rats; test: Carrageenan-induced acute toe swelling in rats; type: in vivo, rat; design: Swelling: unit not given here
# Method: SD rats were divided into blank model group, dexamethasone-positive group (5 mg/kg) and mPEG-HM-1 test group. The drug was administered once a day, and the model group was given the same volume of normal saline for 3 days and fed normally. At the first hour after the last administration, 0.1 mL of 1% carrageenan was injected subcutaneously into the right hind paw of the rats to induce inflammation. The volume of the foot was measured at 1 h, 3 h, 5 h, and 7 h after inflammation. The degree of swelling of the foot was calculated according to the following formula: the degree of swelling of the foot (mL)=the volume of the foot after inflammation−the volume before inflammation. Record the number of milliliters of spilled liquid (method: use the ballpoint pen to circle as the measurement mark at the protruding point of the right joint, and then put the right hind foot of each mouse into the volume measuring device, so that the hind limb is exposed outside the cylinder, and the depth of the immersion was determined by coinciding the circle with the liquid surface. After the foot enters the liquid, the liquid level rises, and the volume of the overflow liquid is the volume of the right hind foot of the rat, and the normal volume of the right hind foot of each mouse is sequentially determined).
# [3] = test system: choroidal neovascularization in BN rats; test: Laser-induced choroidal neovascularization in BN rats (FFA); type: in vivo, rat
# Method: 6-8 weeks old male BN rats were anesthetized with 846 compound anesthetic 0.5 mL/kg administered intraperitoneally. The eye drops of compound tropamide eyes were used 5 minutes before laser photocoagulation, and the pupils of both eyes were fully scattered. Fix animals, with the aid of −53.00 D contact lens, around the optic disc and along the same distance from the optic disc 2PD, the laser beam photocoagulation were performed to make a total of 8 photo-condensation spots, with laser wavelength of 647.1 nm, power of 350 mW, photocoagulation spot diameter and time were 50 μm and 0.05 s, respectively. Immediately after photocoagulation, fundus photography was performed. FFA, histopathology and transmission electron microscopy were performed at 3, 7, 14, 21, and 28 days after photocoagulation.
# It was confirmed by fundus photography and FFA examination that the fluorescein leakage of photocoagulation peaked on the 21st day after photocoagulation, and histopathological examination was performed at the same time. […] A large number of neovascular vessels were seen, and red blood cells were visible in the lumen. Microscopically, capillary cells in the choroidal melanocytes were cohesively altered and endothelial cells aggregated.
# Rats that were successfully modeled were randomly divided into groups of 5 rats each. They were labeled as negative control group, mPEG-SC-HM-1 treatment group, mPEG2-NHS-HM-1 treatment group, mPEG-ALD-HM-1 treatment group and mPEG-bALD-HM-1 treatment group, respectively. Saline, mPEG-HM-1 (see Table 53 for dosing) was administered intravitreally, once daily for 1 week. FFA examinations were performed 3 days, 7 days, 14 days, and 28 days after administration of the modified peptides.
# [4] = test system: retinal neovascular clusters in OIR C57/B16 mice; test: Retinal blood vessels in OIR mice; type: in vivo, mouse; settings: for Neovascular clusters area: retina evaluated on day 17; for Inhibition rate: neovascular clusters area vs control, day 17
# From the text: Establishment of the OIR model: Exposure of young mouse and their mothers to 75% hyperoxic environment from day 7 to day 12 after birth of C57/B16 mice caused rapid disappearance of capillaries in the central retina. Upon returning to the indoor air on the 12th day, the retinal blood vessels, upon exposing to hyperoxia, rapidly disappeared, causing extensive abnormal neovascularization, and the central portion of the retina remained largely avascular for a long time. After the blood vessels disappeared completely, on the 13th day, physiological saline (negative control group), mPEG-SC-HM-1, mPEG2-NHS-HM-1, mPEG-ALD10k-HM-1, and mPEG-bALD-HM-1, were administered by intravitreal injection and retinal vessels were evaluated on day 17 (to label unclosed vessels, […] of Texas Red-labeled tomato lectin was injected into the left ventricle and circulated for 5 min).
# [5] = in vivo
# [6] = 40 mg/kg once a day for 3 days, 1 h after carrageenan
# [7] = 40 mg/kg once a day for 3 days, 3 h after carrageenan
# [8] = 40 mg/kg once a day for 3 days, 5 h after carrageenan
# [9] = 40 mg/kg once a day for 3 days, 7 h after carrageenan
substance,measurement,setting,value
mPEG2-NHS10k-Arg-Gly-Ala-Asp-Arg-Ala-Gly-Gly-Gly-Gly-Arg-Gly-Asp ({mPEG2‑NHS 10 kDa}-RGADRAGGGGRGD) [mPEG2-NHS10k-HM-1],IL-1β,[1]; 10 μg/mL,758.32 ± 15.18 pg/mL
same,Inhibition Rate of IL-1β production,[1]; 10 μg/mL,18.12%
same,IL-1β,[1]; 20 μg/mL,675.25 ± 11.93 pg/mL
same,Inhibition Rate of IL-1β production,[1]; 20 μg/mL,27.09%
same,IL-1β,[1]; 40 μg/mL,546.79 ± 14.12 pg/mL
same,Inhibition Rate of IL-1β production,[1]; 40 μg/mL,40.96%
same,Swelling,"[2]; 20 mg/kg once a day for 3 days, 1 h after carrageenan",0.24 ± 0.12
same,Swelling,"[2]; 20 mg/kg once a day for 3 days, 3 h after carrageenan",0.37 ± 0.16
same,Swelling,"[2]; 20 mg/kg once a day for 3 days, 5 h after carrageenan",0.42 ± 0.16
same,Swelling,"[2]; 20 mg/kg once a day for 3 days, 7 h after carrageenan",0.30 ± 0.12
same,Swelling,[2]; [6],0.21 ± 0.10
same,Swelling,[2]; [7],0.31 ± 0.17
same,Swelling,[2]; [8],0.35 ± 0.11
same,Swelling,[2]; [9],0.33 ± 0.15
same,inhibition of carrageenan-induced toe swelling (in words),"[2]; rats, 40 mg/kg, once a day for 3 days",most effective
same,incidence of CNV,"[3]; BN rats, 28 days after administration, intravitreal once daily for 1 week",39.71%
same,CNV Incidence rate,"[3]; Day 3 after administration, 50 μg intravitreally once daily for 1 week (Table 53)",50.34%
same,leakage Spots #,"[3]; Day 3 after administration, 50 μg intravitreally once daily for 1 week (Table 53), total spots 290-296 by table",148
same,CNV Incidence rate,"[3]; Day 7, 50 μg intravitreally once daily for 1 week (Table 53)",48.35%
same,leakage Spots #,"[3]; Day 7, 50 μg intravitreally once daily for 1 week (Table 53), total spots 182-188 by table",88
same,CNV Incidence rate,"[3]; Day 14, 50 μg intravitreally once daily for 1 week (Table 53)",43.07%
same,leakage Spots #,"[3]; Day 14, 50 μg intravitreally once daily for 1 week (Table 53), total spots 132-138 by table",59
same,CNV Incidence rate,"[3]; Day 28, 50 μg intravitreally once daily for 1 week (Table 53)",39.71%
same,leakage Spots #,"[3]; Day 28, 50 μg intravitreally once daily for 1 week (Table 53), total spots 67-71 by table",27
same,Neovascular clusters area,[4]; 50 μg intravitreal injection on day 13,0.100 ± 0.006 mm^2
same,Inhibition rate,[4]; 50 μg intravitreal,54.63%**
same,inhibition rate of retinal neovascular clusters,"[4]; OIR mice, 50 μg intravitreal injection, evaluated day 17",54.63%
same,AUC0-∞,[5],4858.62 ± 10.62 mg/L/h
same,CL,[5],0.432 ± 0.103 mL/min/kg
same,MRT0-∞,[5],13.08 ± 3.66 h
same,T1/2β (half-life),[5],15.27 ± 0.11 h
mPEG2-NHS20k-Arg-Gly-Ala-Asp-Arg-Ala-Gly-Gly-Gly-Gly-Arg-Gly-Asp ({mPEG2‑NHS 20 kDa}-RGADRAGGGGRGD) [mPEG2-NHS20k-HM-1],IL-1β,[1]; 20 μg/mL,759.06 ± 16.96 pg/mL
same,Inhibition Rate of IL-1β production,[1]; 20 μg/mL,18.04%
same,IL-1β,[1]; 40 μg/mL,655.24 ± 18.59 pg/mL
same,Inhibition Rate of IL-1β production,[1]; 40 μg/mL,29.25%
same,IL-1β,[1]; 80 μg/mL,552.35 ± 10.50 pg/mL
same,Inhibition Rate of IL-1β production,[1]; 80 μg/mL,40.36%
same,Swelling,[2]; [6],0.26 ± 0.15
same,Swelling,[2]; [7],0.34 ± 0.14
same,Swelling,[2]; [8],0.43 ± 0.17
same,Swelling,[2]; [9],0.36 ± 0.12
same,Swelling,"[2]; 80 mg/kg once a day for 3 days, 1 h after carrageenan",0.25 ± 0.11
same,Swelling,"[2]; 80 mg/kg once a day for 3 days, 3 h after carrageenan",0.32 ± 0.13
same,Swelling,"[2]; 80 mg/kg once a day for 3 days, 5 h after carrageenan",0.41 ± 0.11
same,Swelling,"[2]; 80 mg/kg once a day for 3 days, 7 h after carrageenan",0.34 ± 0.14
same,CNV Incidence rate,"[3]; Day 3 after administration, 100 μg intravitreally once daily for 1 week (Table 53)",52.72%
same,leakage Spots #,"[3]; Day 3 after administration, 100 μg intravitreally once daily for 1 week (Table 53), total spots 290-296 by table",155
same,CNV Incidence rate,"[3]; Day 7, 100 μg intravitreally once daily for 1 week (Table 53)",52.20%
same,leakage Spots #,"[3]; Day 7, 100 μg intravitreally once daily for 1 week (Table 53), total spots 182-188 by table",95
same,CNV Incidence rate,"[3]; Day 14, 100 μg intravitreally once daily for 1 week (Table 53)",45.99%
same,leakage Spots #,"[3]; Day 14, 100 μg intravitreally once daily for 1 week (Table 53), total spots 132-138 by table",63
same,CNV Incidence rate,"[3]; Day 28, 100 μg intravitreally once daily for 1 week (Table 53)",42.65%
same,leakage Spots #,"[3]; Day 28, 100 μg intravitreally once daily for 1 week (Table 53), total spots 67-71 by table",29
same,Neovascular clusters area,[4]; 100 μg intravitreal injection on day 13,0.112 ± 0.011 mm^2
same,Inhibition rate,[4]; 100 μg intravitreal,49.27%**
same,AUC0-∞,[5],4682.53 ± 15.01 mg/L/h
same,CL,[5],0.218 ± 0.17 mL/min/kg
same,MRT0-∞,[5],18.16 ± 10.22 h
same,T1/2β (half-life),[5],22.38 ± 0.34 h
